Results published in patent publication US8729095B2, “3-(biaryloxy)propionic acid derivatives for prevention and/or treatment of thromboembolic diseases” (Daiichi Sankyo Company, Limited, priority 2009, dated 2014).

Legend:
[1] = tested on: platelet aggregation induced by ADP in rat platelet-rich plasma (PRP); assay: Platelet aggregation inhibitory activity during oral administration in a rat (ex vivo, ADP-induced); details: male Wistar rats, 1 mg/10 ml/kg orally, blood collected 4 hours after administration, ADP final concentration 3 μM, vs. control PRP (solvent only), read-out: Inhibition Rates (%)
Description: 1 mg/10 ml/kg of the test compound was orally administered by gavage to male rats (Slc: Wistar, age 8 to 9 weeks) that had been fasted overnight. 4 hours after administration, a syringe containing 1/10 volume of a 3.13% sodium citrate solution was used to collect blood from the abdominal aorta of a rat under anesthesia. From the collected blood, platelet-rich plasma (PRP) and platelet-poor plasma (PPP) were prepared according to the method described in the method for measuring human platelet aggregation inhibitory activity. PRP was left at rest at 16° C. for 30 minutes, and subsequently used for measurement.
200 μL of the separately collected PRP was dispensed into a cuvette for the aggregation test, followed by incubation at 37° C. for 2 minutes, and subsequently 2 μL of 0.3 mM ADP was added (final concentration 3 μM) to induce platelet aggregation.
Platelet aggregation was measured for 8 minutes using an aggregometer (MCM HEMA TRACER 313M; MC MEDICAL, INC.). With the light transmittance rate of PPP being set as an aggregation value of 100%, the maximum aggregation rate of PRP was determined, and compared with the maximum aggregation rate of control PRP (rat administered only with a solvent) to calculate inhibition rates.

[2] = tested on: platelet aggregation induced by ADP in human platelet-rich plasma (PRP); assay: Human platelet aggregation inhibitory activity (ADP-induced, platelet-rich plasma); assay type: cell-based; details: 8 min, ADP final concentration 20 μM, maximum aggregation rate, measured for 8 minutes
Description: A blood collecting syringe containing 1/10 volume of a 3.8% sodium citrate solution was used to collect blood from radial vein of a healthy person. The collected blood was centrifuged at 180×g at room temperature for 10 minutes to separate the supernatant (platelet-rich plasma; PRP). After PRP was separately collected, the remaining blood was centrifuged at 1,600×g for 10 minutes to separately collect platelet-poor plasma (PPP) of the upper layer. PRP was left at rest at 16° C. for 30 minutes, and subsequently used for measurement.
200 μL of the separately collected PRP was dispensed into a cuvette for the aggregation test, and 1 μL of dimethylsulfoxide (control) or a test compound solution diluted with dimethylsulfoxide was added, followed by incubation at 37° C. for 2 minutes. Subsequently, 2 μL of 2 mM ADP was added (final concentration 20 μM) to induce platelet aggregation.
Platelet aggregation was measured for 8 minutes using an aggregometer (MCM HEMA TRACER 313M; MC MEDICAL, INC.). With the light transmittance rate of PPP being set as an aggregation value of 100%, the maximum aggregation rate was determined for each concentration of the test compounds to calculate IC50 values.

SMILES	inhibition at 1 mg/kg [1]	IC50 [2]
C[C@@H]1Oc2ncc(Cl)cc2N(C2CCN(C(=O)c3ccc(-c4ccccc4OCC(C)(C)C(=O)O)cc3F)CC2)C1=O [Example 2, 3-{[4′-({4-[(3S)-7-Chloro-3-methyl-2-oxo-2,3-dihydro-1H-pyrido[2,3-b][1,4]oxazin-1-yl]piperidin-1-yl}carbonyl)-3′-fluorobiphenyl-2-yl]oxy}-2,2-dimethylpropanoic acid]	66%	3.5 µM
C[C@H](CC(=O)O)Oc1ccccc1-c1ccc(C(=O)N2CCC(N3C(=O)C(C)(C)Cc4ncc(Cl)cc43)CC2)c(F)c1 [Example 5, (3R)-3-[(4′-{[4-(7-Chloro-3,3-dimethyl-2-oxo-3,4-dihydro-1,5-naphthyridin-1(2H)-yl)piperidin-1-yl]carbonyl}-3′-fluorobiphenyl-2-yl)oxy]butanoic acid]	70%	3.4 µM
C[C@H](CC(=O)O)Oc1ccccc1-c1ccc(C(=O)N2CCC(N3C(=O)C(C)(C)Oc4ncc(Cl)cc43)CC2)c(F)c1 [Example 6, (3R)-3-[(4′-{[4-(7-Chloro-3,3-dimethyl-2-oxo-2,3-dihydro-1H-pyrido[2,3-b][1,4]oxazin-1-yl)piperidin-1-yl]carbonyl}-3′-fluorobiphenyl-2-yl)oxy]butanoic acid]	54%	2.4 µM
C[C@@H](Oc1ccccc1-c1ccc(C(=O)N2CCC(N3C(=O)C(C)(C)Oc4ncc(Cl)cc43)CC2)c(F)c1)[C@@H](C)C(=O)O [Example 9, (2R,3R)-3-[(4′-{[4-(7-Chloro-3,3-dimethyl-2-oxo-2,3-dihydro-1H-pyrido[2,3-b][1,4]oxazin-1-yl)piperidin-1-yl]carbonyl}-3′-fluorobiphenyl-2-yl)oxy]-2-methylbutanoic acid]	52%	2.1 µM
CC[C@@H](COc1ccccc1-c1ccc(C(=O)N2CCC(N3C(=O)C(C)(C)Oc4ncc(Cl)cc43)CC2)c(F)c1)C(=O)O [Example 10, (2S)-2-{[(4′-{[4-(7-Chloro-3,3-dimethyl-2-oxo-2,3-dihydro-1H-pyrido[2,3-b][1,4]oxazin-1-yl)piperidin-1-yl]carbonyl}-3′-fluorobiphenyl-2-yl)oxy]methyl}butanoic acid]	47%	8.4 µM
C[C@@H](COc1ccccc1-c1ccc(C(=O)N2CCC(N3C(=O)C(C)(C)Cc4ncc(Cl)cc43)CC2)c(F)c1)C(=O)O [Example 11, (2S)-3-[(4′-{[4-(7-Chloro-3,3-dimethyl-2-oxo-3,4-dihydro-1,5-naphthyridin-1(2H)-yl)piperidin-1-yl]carbonyl}-3′-fluorobiphenyl-2-yl)oxy]-2-methylpropanoic acid]	45%	6.1 µM
C[C@H](CC(=O)O)Oc1ccc(F)cc1-c1ccc(C(=O)N2CCC(N3C(=O)C(C)(C)Oc4ncc(Cl)cc43)CC2)c(F)c1 [Example 13, (3R)-3-[(4′-{[4-(7-Chloro-3,3-dimethyl-2-oxo-2,3-dihydro-1H-pyrido[2,3-b][1,4]oxazin-1-yl)piperidin-1-yl]carbonyl}-3′,5-difluorobiphenyl-2-yl)oxy]butanoic acid]	63%	4.1 µM
C[C@H](CC(=O)O)Oc1ccc(F)cc1-c1ccc(C(=O)N2CCC(N3C(=O)C(C)(C)Cc4ncc(Cl)cc43)CC2)c(F)c1 [Example 14, (3R)-3-[(4′-{[4-(7-Chloro-3,3-dimethyl-2-oxo-3,4-dihydro-1,5-naphthyridin-1(2H)-yl)piperidin-1-yl]carbonyl}-3′,5-difluorobiphenyl-2-yl)oxy]butanoic acid]	79%	3.4 µM
Cc1cc(-c2ccccc2O[C@H](C)CC(=O)O)ccc1C(=O)N1CCC(N2C(=O)C(C)(C)Oc3ncc(Cl)cc32)CC1 [Example 16, (3R)-3-[(4′-{[4-(7-Chloro-3,3-dimethyl-2-oxo-2,3-dihydro-1H-pyrido[2,3-b][1,4]oxazin-1-yl)piperidin-1-yl]carbonyl}-3′-methylbiphenyl-2-yl)oxy]butanoic acid]	40%	6.5 µM
Cc1cc(-c2cc(F)ccc2O[C@H](C)CC(=O)O)ccc1C(=O)N1CCC(N2C(=O)C(C)(C)Oc3ncc(Cl)cc32)CC1 [Example 17, (3R)-3-[(4′-{[4-(7-Chloro-3,3-dimethyl-2-oxo-2,3-dihydro-1H-pyrido[2,3-b][1,4]oxazin-1-yl)piperidin-1-yl]carbonyl}-5-fluoro-3′-methylbiphenyl-2-yl)oxy]butanoic acid]	52%	9.8 µM
C[C@H](CC(=O)O)Oc1ccccc1-c1ccc(C(=O)N2CCC(N3C(=O)C(C)(C)Oc4ncc(Cl)cc43)CC2)c(Cl)c1 [Example 19, (3R)-3-[(3′-Chloro-4′-{[4-(7-chloro-3,3-dimethyl-2-oxo-2,3-dihydro-1H-pyrido[2,3-b][1,4]oxazin-1-yl)piperidin-1-yl]carbonyl}biphenyl-2-yl)oxy]butanoic acid]	64%	7.5 µM
C[C@@H]1Oc2ncc(Cl)cc2N(C2CCN(C(=O)c3ccc(-c4ccccc4OC[C@H](C)C(=O)O)cc3F)CC2)C1=O [Example 24, (2S)-3-{[4′-({4-[(3S)-7-Chloro-3-methyl-2-oxo-2,3-dihydro-1H-pyrido[2,3-b][1,4]oxazin-1-yl]piperidin-1-yl}carbonyl)-3′-fluorobiphenyl-2-yl]oxy}-2-methylpropanoic acid]	44%	3.1 µM
C[C@@H](COc1ccccc1-c1ccc(C(=O)N2CCC(N3C(=O)C(C)(C)Oc4ncc(Cl)cc43)CC2)c(F)c1)C(=O)O [Example 25, (2S)-3-[(4′-{[4-(7-Chloro-3,3-dimethyl-2-oxo-2,3-dihydro-1H-pyrido[2,3-b][1,4]oxazin-1-yl)piperidin-1-yl]carbonyl}-3′-fluorobiphenyl-2-yl)oxy]-2-methylpropanoic acid]	46%	5.1 µM
C[C@@H]1Oc2ncc(Cl)cc2N(C2CCN(C(=O)c3ccc(-c4cc(F)ccc4OC[C@H](C)C(=O)O)cc3F)CC2)C1=O [Example 26, (2S)-3-{[4′-({4-[(3S)-7-Chloro-3-methyl-2-oxo-2,3-dihydro-1H-pyrido[2,3-b][1,4]oxazin-1-yl]piperidin-1-yl}carbonyl)-3′,5-difluorobiphenyl-2-yl]oxy}-2-methylpropanoic acid]	55%	7.3 µM
C[C@@H](COc1ccc(F)cc1-c1ccc(C(=O)N2CCC(N3C(=O)C(C)(C)Oc4ncc(Cl)cc43)CC2)c(F)c1)C(=O)O [Example 27, (2S)-3-[(4′-{[4-(7-Chloro-3,3-dimethyl-2-oxo-2,3-dihydro-1H-pyrido[2,3-b][1,4]oxazin-1-yl)piperidin-1-yl]carbonyl}-3′,5-difluorobiphenyl-2-yl)oxy]-2-methylpropanoic acid]	36%	6.5 µM
C[C@H](CC(=O)O)Oc1ccccc1-c1ccc(C(=O)N2CCC(N3C(=O)[C@H](C)Oc4ncc(Cl)cc43)CC2)c(F)c1 [Example 28, (3R)-3-{[4′-({4-[(3S)-7-Chloro-3-methyl-2-oxo-2,3-dihydro-1H-pyrido[2,3-b][1,4]oxazin-1-yl]piperidin-1-yl}carbonyl)-3′-fluorobiphenyl-2-yl]oxy}butanoic acid]	74%	1.8 µM
C[C@H](CC(=O)O)Oc1ccc(F)cc1-c1ccc(C(=O)N2CCC(N3C(=O)[C@H](C)Oc4ncc(Cl)cc43)CC2)c(F)c1 [Example 29, (3R)-3-{[4′-({4-[(3S)-7-Chloro-3-methyl-2-oxo-2,3-dihydro-1H-pyrido[2,3-b][1,4]oxazin-1-yl]piperidin-1-yl}carbonyl)-3′,5-difluorobiphenyl-2-yl]oxy}butanoic acid]	75%	4.3 µM
C[C@H](CC(=O)O)Oc1ccccc1-c1cc(F)c(C(=O)N2CCC(N3C(=O)C(C)(C)Oc4ncc(Cl)cc43)CC2)cc1F [Example 34, (3R)-3-[(4′-{[4-(7-Chloro-3,3-dimethyl-2-oxo-2,3-dihydro-1H-pyrido[2,3-b][1,4]oxazin-1-yl)piperidin-1-yl]carbonyl}-2′,5′-difluorobiphenyl-2-yl)oxy]butanoic acid]	55%	2.3 µM
Cc1cc(-c2ccccc2O[C@H](C)CC(=O)O)c(C)cc1C(=O)N1CCC(N2C(=O)C(C)(C)Oc3ncc(Cl)cc32)CC1 [Example 54, (3R)-3-[(4′-{[4-(7-Chloro-3,3-dimethyl-2-oxo-2,3-dihydro-1H-pyrido[2,3-b][1,4]oxazin-1-yl)piperidin-1-yl]carbonyl}-2′,5′-dimethylbiphenyl-2-yl)oxy]butanoic acid]		11.4 µM
